Source: ChEMBL document CHEMBL3580572, “Synthesis of mixed opioid affinity cyclic endomorphin-2 analogues with fluorinated phenylalanines” (ACS Med Chem Lett, 2015)
Calls of active or inactive are those of the source. The calls are words filed in the database; no cut-off is given here. Where a SMILES comes first, the peptide text is derived from it. Bridges are numbered along the chain shown (N, C = ends). [ ]: non-standard residue; d: D form. Phe(4-CF3) = N[C@@H](Cc1ccc(C(F)(F)F)cc1)C(=O)O; Dmt = Cc1cc(O)cc(C)c1C[C@H](N)C(=O)O

Tests used:
Mu-type opioid receptor [1] = biological target: Mu-type opioid receptor (Rattus norvegicus, UniProt P33535); assay: Displacement of [3H]DAMGO from mu opioid receptor in Wistar rat brain membranes after 120 mins by scintillation counting analysis; assay type: cell membranes, Membrane
[2] = biological target: Delta-type opioid receptor (Rattus norvegicus, UniProt P33533); assay: Displacement of [3H][Ile5,6]deltorphin-2 from delta opioid receptor in Wistar rat brain membranes after 120 mins by scintillation counting analysis; assay type: cell membranes, Membrane
[3] = biological target: Kappa-type opioid receptor (Cavia porcellus, UniProt P41144); assay: Displacement of [3H]nor-BNI from kappa opioid receptor in guinea pig brain membranes after 120 mins by scintillation counting analysis; assay type: cell membranes, Membrane
[4] = Metabolic stability in rat brain homogenates assessed as enzymatic degradation by measuring compound remaining at 0.5 mM after 90 mins by RP-HPLC analysis; assay type: ADME, tissue-based; conditions: brain homogenate, read-out: Stability
Mu-type opioid receptor [5] = biological target: T1, Mu-type opioid receptor (Homo sapiens, UniProt P35372); assay: Agonist activity at human recombinant mu opioid receptor expressed in CHO cells co-expressing C-terminally modified GGalphaqi5 assessed as stimulation of calcium release by Fluo-4 AM dye-based fluorescence assay; assay type: functional, cell-based
[6] = biological target: T2, Delta-type opioid receptor (Homo sapiens, UniProt P41143); assay: Agonist activity at human recombinant delta opioid receptor expressed in CHO cells co-expressing Galphaq66Di5 assessed as stimulation of calcium release up to 1 uM by Fluo-4 AM dye-based fluorescence assay; assay type: functional, cell-based
[7] = biological target: T3, Kappa-type opioid receptor (Homo sapiens, UniProt P41145); assay: Agonist activity at human recombinant kappa opioid receptor expressed in CHO cells co-expressing C-terminally modified Galphaqi5 assessed as stimulation of calcium release by Fluo-4 AM dye-based fluorescence assay; assay type: functional, cell-based
[8] = biological target: T3, Kappa-type opioid receptor; assay: Intrinsic activity at human recombinant kappa opioid receptor expressed in CHO cells co-expressing C-terminally modified Galphaqi5 assessed as efficacy ratio by measuring stimulation of calcium release by Fluo-4 AM dye-based fluorescence assay relative to dynorphin-A; assay type: functional, cell-based
[9] = biological target: T2, Delta-type opioid receptor; assay: Agonist activity at human recombinant delta opioid receptor expressed in CHO cells co-expressing Galphaq66Di5 assessed as stimulation of calcium release by Fluo-4 AM dye-based fluorescence assay; assay type: functional, cell-based
[10] = biological target: T2, Delta-type opioid receptor; assay: Intrinsic activity at human recombinant delta opioid receptor expressed in CHO cells co-expressing Galphaq66Di5 assessed as efficacy ratio by measuring stimulation of calcium release by Fluo-4 AM dye-based fluorescence assay relative to DPDPE; assay type: functional, cell-based
Mus musculus [11] = assay: Antinociceptive activity in icv dosed CD1 mouse assessed as inhibition of jumping behavior after 10 mins by hot plate assay; assay type: functional, organism-based
Mus musculus [12] = assay: Antinociceptive activity in CD1 mouse assessed as maximal possible effect by measuring inhibition of jumping behavior at 10 mg/kg, ip after 15 mins by hot plate assay relative to control; assay type: functional
Mus musculus [13] = assay: Antinociceptive activity in CD1 mouse assessed as inhibition of jumping behavior at 100 ng, icv after 10 mins by hot plate assay in presence of mu opioid receptor antagonist beta-FNA; assay type: functional, organism-based
Mus musculus [14] = assay: Antinociceptive activity in CD1 mouse assessed as inhibition of jumping behavior at 100 ng, icv after 10 mins by hot plate assay in presence of kappa opioid receptor antagonist nor-BNI; assay type: functional, organism-based
Mus musculus [15] = assay: Antinociceptive activity in CD1 mouse assessed as inhibition of jumping behavior at 0.3 to 10 mg/kg, ip after 15 mins by hot plate assay; assay type: functional, organism-based
Mu-type opioid receptor [16] = biological target: T1, Mu-type opioid receptor; assay: Agonist activity at human recombinant mu opioid receptor expressed in CHO cells co-expressing C-terminally modified Galphaqi5 assessed as stimulation of calcium release up to 1 uM by Fluo-4 AM dye-based fluorescence assay; assay type: functional, cell-based

Chain of Kappa-type opioid receptor (Cavia porcellus, UniProt P41144) (P41144 whole entry): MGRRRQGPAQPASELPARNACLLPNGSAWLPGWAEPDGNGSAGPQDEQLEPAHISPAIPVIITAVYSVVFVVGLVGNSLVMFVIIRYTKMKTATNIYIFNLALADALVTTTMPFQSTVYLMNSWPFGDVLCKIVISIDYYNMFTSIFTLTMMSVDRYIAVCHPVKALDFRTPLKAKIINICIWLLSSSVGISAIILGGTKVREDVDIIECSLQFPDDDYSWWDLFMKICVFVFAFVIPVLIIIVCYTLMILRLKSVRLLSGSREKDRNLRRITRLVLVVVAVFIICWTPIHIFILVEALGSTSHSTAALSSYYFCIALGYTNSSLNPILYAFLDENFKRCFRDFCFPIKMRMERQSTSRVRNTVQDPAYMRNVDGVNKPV
Chain of Delta-type opioid receptor (Rattus norvegicus, UniProt P33533) (P33533 whole entry): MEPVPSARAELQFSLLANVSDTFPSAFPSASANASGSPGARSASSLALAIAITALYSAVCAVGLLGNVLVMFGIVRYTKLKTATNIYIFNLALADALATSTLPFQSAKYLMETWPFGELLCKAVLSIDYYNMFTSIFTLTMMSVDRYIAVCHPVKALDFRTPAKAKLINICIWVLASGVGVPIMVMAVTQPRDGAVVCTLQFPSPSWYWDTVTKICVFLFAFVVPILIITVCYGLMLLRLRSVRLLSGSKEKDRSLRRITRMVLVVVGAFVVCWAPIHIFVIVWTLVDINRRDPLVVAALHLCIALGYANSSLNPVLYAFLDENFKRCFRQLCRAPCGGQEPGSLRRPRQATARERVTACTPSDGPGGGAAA
T2 sequence (P41143 whole entry): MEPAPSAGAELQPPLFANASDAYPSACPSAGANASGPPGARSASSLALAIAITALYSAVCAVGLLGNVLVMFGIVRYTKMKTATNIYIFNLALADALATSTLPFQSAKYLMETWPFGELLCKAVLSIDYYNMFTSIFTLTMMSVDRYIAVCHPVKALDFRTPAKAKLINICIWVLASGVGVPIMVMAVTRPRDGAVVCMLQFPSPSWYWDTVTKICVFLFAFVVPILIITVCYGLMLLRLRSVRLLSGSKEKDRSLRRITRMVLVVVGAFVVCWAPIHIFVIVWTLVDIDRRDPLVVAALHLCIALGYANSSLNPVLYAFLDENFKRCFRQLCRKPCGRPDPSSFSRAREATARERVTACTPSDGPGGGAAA
T1 sequence (P35372 whole entry): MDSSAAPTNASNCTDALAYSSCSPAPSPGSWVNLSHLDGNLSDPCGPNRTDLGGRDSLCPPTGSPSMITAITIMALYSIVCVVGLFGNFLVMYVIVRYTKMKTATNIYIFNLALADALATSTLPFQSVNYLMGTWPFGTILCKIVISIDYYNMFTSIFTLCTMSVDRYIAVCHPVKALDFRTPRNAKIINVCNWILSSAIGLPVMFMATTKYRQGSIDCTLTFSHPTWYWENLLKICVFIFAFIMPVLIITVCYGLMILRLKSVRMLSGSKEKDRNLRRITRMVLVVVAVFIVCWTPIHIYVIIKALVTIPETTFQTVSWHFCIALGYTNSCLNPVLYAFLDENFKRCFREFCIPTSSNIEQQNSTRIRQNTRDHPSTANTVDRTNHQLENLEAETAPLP
T3 sequence (P41145 whole entry): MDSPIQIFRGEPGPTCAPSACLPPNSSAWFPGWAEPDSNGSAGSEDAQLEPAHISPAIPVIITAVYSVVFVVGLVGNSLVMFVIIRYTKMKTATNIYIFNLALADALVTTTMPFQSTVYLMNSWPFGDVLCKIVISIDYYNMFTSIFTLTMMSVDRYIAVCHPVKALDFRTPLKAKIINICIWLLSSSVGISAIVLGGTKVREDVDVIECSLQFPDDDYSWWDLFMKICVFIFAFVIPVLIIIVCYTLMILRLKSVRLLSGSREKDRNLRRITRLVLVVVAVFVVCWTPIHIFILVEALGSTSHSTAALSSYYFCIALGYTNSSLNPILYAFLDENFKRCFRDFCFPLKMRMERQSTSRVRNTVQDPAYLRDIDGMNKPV
Chain of Mu-type opioid receptor (Rattus norvegicus, UniProt P33535) (P33535 whole entry): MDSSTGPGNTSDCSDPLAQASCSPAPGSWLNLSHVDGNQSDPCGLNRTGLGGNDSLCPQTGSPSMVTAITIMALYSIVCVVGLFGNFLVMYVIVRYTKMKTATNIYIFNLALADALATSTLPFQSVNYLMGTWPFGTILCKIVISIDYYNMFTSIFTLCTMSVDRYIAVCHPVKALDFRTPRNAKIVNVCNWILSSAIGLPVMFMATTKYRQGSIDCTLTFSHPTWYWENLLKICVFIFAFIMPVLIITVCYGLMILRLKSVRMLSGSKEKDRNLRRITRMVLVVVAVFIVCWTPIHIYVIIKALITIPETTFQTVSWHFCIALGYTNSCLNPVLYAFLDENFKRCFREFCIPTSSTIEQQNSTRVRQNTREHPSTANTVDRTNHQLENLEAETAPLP

Row | Structure (SMILES) | IC50 (Mu-type opioid receptor [1]) | IC50 [2] | IC50 [3] | remaining at 1.5 h, 500 µM [4] | EC50 (Mu-type opioid receptor [5]) | Activity [6] | EC50 [7] | Ratio [8] | EC50 [9] | Ratio [10] | inhibition (Mus musculus [11]) | MPE (Mus musculus [12]) | inhibition (Mus musculus [13]) | inhibition (Mus musculus [14]) | inhibition (Mus musculus [15]) | Activity (Mu-type opioid receptor [16])
1 | Cc1cc(O)cc(C)c1C[C@H](N)C(=O)N[C@@H]1CCCCNC(=O)C[C@@H](C(N)=O)NC(=O)[C@H](Cc2ccc(C(F)(F)F)cc2)NC(=O)[C@H](Cc2ccccc2)NC1=O (H-[Dmt][dK]F[Phe(4-CF3)]D-NH2; lactam 2-5) | 0.92 nM | > 1000 nM | 1.15 nM | 93% | 6.76 nM | inactive | 3.63 nM | 0.6 | – | – | – | – | – | – | – | –
2 | Cc1cc(O)cc(C)c1C[C@H](N)C(=O)N[C@@H]1CCCCNC(=O)C[C@@H](C(N)=O)NC(=O)[C@H](Cc2ccccc2)NC(=O)[C@H](Cc2ccc(F)cc2)NC1=O | 0.55 nM | 280 nM | 2.4 nM | 96% | 2.51 nM | inactive | 4.79 nM | 0.79 | – | – | – | – | – | – | – | –
3 | Cc1cc(O)cc(C)c1C[C@H](N)C(=O)N[C@@H]1CCCCNC(=O)C[C@@H](C(N)=O)NC(=O)[C@H](Cc2ccc(F)cc2F)NC(=O)[C@H](Cc2ccccc2)NC1=O | 0.49 nM | 11.2 nM | 0.3 nM | 97% | 1.66 nM | – | 1.35 nM | 0.82 | 8.71 nM | 0.37 | Dose-dependent effect | 84% | inactive | Active | – | –
4 | NC(=O)[C@@H]1CC(=O)NCCCC[C@@H](NC(=O)[C@@H](N)Cc2ccc(O)cc2)C(=O)N[C@@H](Cc2ccccc2)C(=O)N[C@@H](Cc2ccc(F)cc2F)C(=O)N1 | 0.42 nM | 110 nM | 0.9 nM | 94% | 6.31 nM | – | 4.9 nM | 0.78 | 126 nM | 0.5 | – | – | – | – | – | –
5 | Cc1cc(O)cc(C)c1C[C@H](N)C(=O)N[C@@H]1CCCCNC(=O)C[C@@H](C(N)=O)NC(=O)[C@H](Cc2ccc(F)cc2)NC(=O)[C@H](Cc2ccccc2)NC1=O | 0.61 nM | 168 nM | 0.55 nM | 93% | 2.75 nM | – | 2.24 nM | 0.71 | 33.9 nM | 0.21 | Dose-dependent effect | – | inactive | Active | Active | –
6 | NC(=O)[C@@H]1CC(=O)NCCCC[C@@H](NC(=O)[C@@H](N)Cc2ccc(O)cc2)C(=O)N[C@@H](Cc2ccccc2)C(=O)N[C@@H](Cc2ccc(C(F)(F)F)cc2)C(=O)N1 | 1.6 nM | 429 nM | 1.5 nM | 97% | 5.25 nM | – | 11.7 nM | 0.78 | 162 nM | 0.27 | – | – | – | – | – | –
7 | Cc1cc(O)cc(C)c1C[C@H](N)C(=O)N[C@@H]1CCCCNC(=O)C[C@@H](C(N)=O)NC(=O)[C@H](Cc2ccccc2)NC(=O)[C@H](Cc2ccc(C(F)(F)F)cc2)NC1=O | > 1000 nM | > 1000 nM | 6.4 nM | 96% | – | – | – | – | 9.33 nM | 0.28 | – | – | – | – | – | inactive
8 | NC(=O)[C@H](Cc1ccccc1)NC(=O)[C@H](Cc1ccccc1)NC(=O)[C@@H]1CCCN1C(=O)[C@@H](N)Cc1ccc(O)cc1 [ENDOMORPHIN 2] | – | – | – | 0.61% | – | – | – | – | – | – | – | – | – | – | – | –
9 | NC(=O)[C@@H]1CC(=O)NCCCC[C@@H](NC(=O)[C@@H](N)Cc2ccc(O)cc2)C(=O)N[C@@H](Cc2ccc(F)cc2)C(=O)N[C@@H](Cc2ccccc2)C(=O)N1 | 0.72 nM | 348 nM | 2.43 nM | 96% | 2.57 nM | – | 10 nM | 0.89 | 457 nM | 0.14 | – | – | – | – | – | –
10 | NC(=O)[C@@H]1CC(=O)NCCCC[C@@H](NC(=O)[C@@H](N)Cc2ccc(O)cc2)C(=O)N[C@@H](Cc2ccc(C(F)(F)F)cc2)C(=O)N[C@@H](Cc2ccccc2)C(=O)N1 | > 1000 nM | > 1000 nM | 24.5 nM | 97% | – | inactive | 72.4 nM | 0.7 | – | – | – | – | – | – | – | inactive
11 | NC(=O)[C@@H]1CC(=O)NCCCC[C@@H](NC(=O)[C@@H](N)Cc2ccc(O)cc2)C(=O)N[C@@H](Cc2ccc(F)cc2F)C(=O)N[C@@H](Cc2ccccc2)C(=O)N1 | 0.69 nM | > 1000 nM | 3.26 nM | 93% | 4.07 nM | inactive | 7.59 nM | 0.78 | – | – | – | – | – | – | – | –
12 | NC(=O)[C@@H]1CC(=O)NCCCC[C@@H](NC(=O)[C@@H](N)Cc2ccc(O)cc2)C(=O)N[C@@H](Cc2ccccc2)C(=O)N[C@@H](Cc2ccc(F)cc2)C(=O)N1 | 0.98 nM | 286 nM | 0.6 nM | 93% | 3.24 nM | – | 1.05 nM | 0.88 | 51.3 nM | 0.2 | – | – | – | – | – | –
13 | Cc1cc(O)cc(C)c1C[C@H](N)C(=O)N[C@@H]1CCCCNC(=O)C[C@@H](C(N)=O)NC(=O)[C@H](Cc2ccccc2)NC(=O)[C@H](Cc2ccc(F)cc2F)NC1=O | 0.54 nM | 342 nM | 0.6 nM | 94% | 5.13 nM | – | 2.82 nM | 0.65 | – | – | – | – | – | – | – | –
